Data published in patent US5914328A, “Heterocyclic ether compounds useful in controlling neurotransmitter release” (Abbott Laboratories, priority 1995, dated 1999).
Where a name gives a salt, the structure may show the parent alone. Read-outs that look alike come from different tables or passages of the source.

Legend:
[1] = target: neuronal nicotinic cholinergic channel receptor; experiment: Binding of [3H]-cytisine to neuronal nicotinic receptors, whole rat brain synaptic membranes
Protocol: B. Protocol For Determination of Nicotinic Cholinergic Channel Receptor Binding Potencies of Ligands
Binding of [^3 H]-cytisine ([^3 H]-CYT) to nicotinic receptors was accomplished using crude synaptic membrane preparations from whole rat brain (Pabreza et al., Molecular Pharmacol., 1990, 39:9). Washed membranes were stored at -80° C. prior to use. Frozen aliquots were slowly thawed and resuspended in 20 volumes of buffer (containing: 120 mM NaCl, 5 mM KCl, 2 mM MgCl2, 2 mM CaCl2 and 50 mM Tris-Cl, pH 7.4 @4° C.). After centrifuging at 20,000×g for 15 minutes, the pellets were resuspended in 30 volumes of buffer. Homogenate (containing […]) was added to triplicate tubes containing concentrations of test compound and [^3 H]-CYT (1.25 nM) in a final volume of 500 μL. Samples were incubated for 60 minutes at 4° C., then rapidly filtered through Whatman GF/B filters presoaked in 0.5% polyethylimine using 3×4 mL of ice-cold buffer. The filters are counted in 4 mL of Ecolume® (ICN). […] Alternately, data were expressed as a percentage of the total specific binding.

[2] = tested on: nAChR evoked release of [3H]-dopamine; experiment: Striatal dopamine release ([3H]-dopamine, superfused rat striatal slices); format: cell-based; details: standard 100 nM (-)-nicotine = 1.0
Protocol: The protocol for this procedure follows below.
A. Protocol for Determination of Striatal Dopamine Release.
nAChR evoked release of [ring-2,5,6-^3 H]-dopamine (24.4 Ci/mmol) was measured in superfused rat striatal slices. Striata were dissected from two male Sprague-Dawley rats per experiment and sliced 0.35×0.25 mm by a McIlwain Tissue Chopper (Brinkman Instrument Co., Westbury, N.Y.). After two washes with Krebs-HEPES buffer (137 mM NaCl, 4.7 mM KCl, 1 mM MgSO4, 2.5 mM CaCl2, 1.25 mM NaH2 PO4, 10 mM glucose, 15 mM HEPES-NaOH, pH 7.4, containing 10 μM pargyline and 10 μM ascorbic acid), slices were preincubated for 10 minutes at […] under 95%/5% O2 /CO2. After replacing the buffer, slices were labeled with […] [^3 H]-dopamine for 25 min in Krebs-HEPES at […] Aliquots of slices were placed in 18 superfusion chambers of a Brandel SP2000 superfusion apparatus (Brandel, Gaithersberg, Md.). Following 47 minutes of washout, slices were exposed to agonist at various concentrations for4 minutes. Antagonists or inhibitors, when present were introduced 4 minutes prior to and during agonist exposure. Collected fractions were counted in 5 mL of Ecolume. Tissue was recovered from superfusion chambers, solubilized with 1 mL of Solvable™ (DuPont-NEN) and counted in 15 mL of Ecolume. Fractional release of [^3 H]-dopamine was calculated from radioactivity above baseline as a fraction of total radioactivity.

[3] = tested on: cholinergic ligand-gated channels; experiment: Cholinergic channel activation in PC12 cells, whole-cell patch-clamp; format: cell-based; details: whole-cell patch-clamp current
Description: D. Protocols for the Determination of Cholinergic Channel Activation in PC12 Cells.
The cholinergic channel activator properties of Example 9 were investigated in PC12 cells using the whole-cell patch-clamp approach to measure current flow through ligand-gated membrane channels.

[4] = read-out: Receptor Binding Ki (Table 1)
[5] = example concentration 10 μM (*)
[6] = read-out: Receptor Binding Ki (Table 2)
[7] = example concentration 0.1 μ (***)
[8] = example concentration 1 μM (**)

**Q.** With `Cc1ccc(OCC2CCCN2)cn1` (stereo not shown) [Example 37, 6methyl-3-(2-(R-pyrrolidinylmethoxy)pyridinedihydrochloride] as the molecule, how does the Ki [1, 4] read?
**A.** 0.5 nM

**Q.** What about the “Dopamine Release relative to Nicotine” value [2, 5] of the same molecule?
**A.** 0.8

**Q.** For `CC(Oc1cccnc1)[C@@H]1CCCN1C` (stereo partly drawn) [Example 6, 3-(a-methyl-(1-methyl-2-(S)-pyrrolidinyl)methoxy)pyridine hydrochloride], which Ki [1, 6] is on record?
**A.** 6.7 nM

**Q.** With `Cc1ccc(OC[C@@H]2CCCN2)cn1.Cl.Cl` [Example 18, 6-methyl-3-(2-(S)-pyrrolidinylmethoxy)pyridine dihydrochloride] as the molecule, how does the “Dopamine Release relative to Nicotine” value [2, 7] read?
**A.** 1.0

**Q.** `Cc1ncccc1OC[C@@H]1CCN1` [Example 29, 2-methyl-3-(2-(S)-azetidinylmethoxy)pyridine dihydrochloride] was tested. Which Ki [1, 6] did it give?
**A.** 1.3 nM

**Q.** Which Ki ([1]; [3H]-cytisine 1.25 nM, rat brain membranes, 4° C., Table 2, read-out: Receptor Binding Ki (Table 2)) does the source give for `c1cnc(OC[C@@H]2CCN2)cn1` [Example 7] here?
**A.** 0.44 nM

**Q.** Which Ki [1, 6] does the source give for `CN1CCCCC1COc1cccnc1` (stereo not shown) [Example 26, 3-((1-methyl-2-piperidinyl)methoxy)pyridine oxalate salt] here?
**A.** 76 nM

**Q.** `c1cncc(OC[C@@H]2CCCN2)c1` [Example 14, 3-(2-(S)-pyrrolidinylmethoxypyridine fumarate] was tested. Which Ki [1, 4] did it give?
**A.** 0.14 nM

**Q.** What about the “Dopamine Release relative to Nicotine” value [2, 8] of the same molecule?
**A.** 1.0

**Q.** For `Clc1ccc(OC[C@@H]2CCN2)cn1` [Example 52, 3-(2-(S)-azetidinylmethoxy)-6-chloropyridine dihydrochloride], which “Dopamine Release relative to Nicotine” value [2, 5] is on record?
**A.** 1.0

**Q.** Which results are given for `Cc1ccc(OC[C@@H]2CCCN2C)cn1.Cl.Cl` [Example 19, 6methyl-3-((1-methyl-2-(S)-pyrrolidinyl)methoxy)pyridine dihydrochloride]?
**A.** Ki [1, 4]: 1.47 nM; Dopamine Release relative to Nicotine [2, 7]: 0.78

**Q.** Which “Dopamine Release relative to Nicotine” value [2, 5] does the source give for `Cc1ccc(OC[C@@H]2CCN2C)cn1.Cl.Cl` [Example 59, 3-((1-methyl-2-(S)-azetidinyl)methoxy)-6-methylpyridine dihydrochloride] here?
**A.** 0.7

**Q.** With `CN1CCC[C@@H]1COc1cccnc1.Cl` [Example 1, 3-((1-methyl-2-(R)-pyrrolidinyl)methoxy)pyridine hydrochloride] as the molecule, how does the “Dopamine Release relative to Nicotine” value [2, 5] read?
**A.** 0.08

**Q.** How did the “Dopamine Release relative to Nicotine” value [2, 5] turn out when `CCN1CCC[C@H]1COc1cccnc1.Cl.Cl` [Example 38, 3-((1-ethyl-2(S)-pyrrolidinyl)methoxy)pyridine dihydrochloride] was run?
**A.** 0.6

**Q.** Which “Dopamine Release relative to Nicotine” value [2, 8] does the source give for `CN1CCC[C@H]1COc1cncc(Cl)c1` [Example 16, 5chloro-3-((1-methyl-2-(S)-pyrrolidinyl)methoxypyridinedihydrochloride] here?
**A.** 1.0

**Q.** For `CN1CCC[C@H]1COc1cccnc1.O=C(O)/C=C/C(=O)O` [Example 4, 3-((1-methyl-2-(S)-pyrrolidinyl)methoxy)pyridine fumarate], which “Dopamine Release relative to Nicotine” value [2, 5] is on record?
**A.** 1.0

**Q.** `CN1CCC[C@H]1COc1cnc2ccccc2c1.Cl` [Example 31, 3-(1-methyl-2-(S)-pyrrolidinylmethoxy)quinoline hydrochloride] was tested. Which “Dopamine Release relative to Nicotine” value [2, 5] did it give?
**A.** 0.15

**Q.** What does the source list for `Cl.Cl.c1cncc(OC[C@@H]2CCN2)c1` [Example 9, 3-(2-(S)-azetidinylmethoxy)pyridine dihydrochloride]?
**A.** cholinergic channel activator properties (in words) [3]: clear agonist activity; Dopamine Release relative to Nicotine [2, 5]: 1.0

**Q.** `CN1CCC[C@H]1CCOc1cccnc1.Cl.Cl` [Example 103, 3-(2-(1-methyl-2-(S)-pyrrolidinyl)ethoxy)pyridine dihydrochloride] was tested. Which “Dopamine Release relative to Nicotine” value [2, 5] did it give?
**A.** 0.3

**Q.** For `Cc1ccc(OC[C@H]2CCCN2C)cn1` [Example 36, 6-methyl-3-((1-methyl-2-(R)-pyrrolidinyl)methoxy)pyridine dihydrochloride], which Ki [1, 6] is on record?
**A.** 26 nM

**Q.** How did the “Dopamine Release relative to Nicotine” value [2, 5] turn out when `CN1CC[C@H]1COc1cnccn1.Cl.Cl` [Example 8, 2-((1-methyl-2-(S)-azetidinyl)methoxy)pyrazine dihydrochloride] was run?
**A.** 0.55

**Q.** Which “Dopamine Release relative to Nicotine” value [2, 5] does the source give for `Cc1ccncc1OC[C@@H]1CCCN1C.Cl.Cl` [Example 46, 4-methyl-3-((1-methyl-2-(S)-pyrrolidinyl)methoxy)pyridine dihydrochloride] here?
**A.** 0.85

**Q.** For `C[C@@H]1C[C@@H](COc2cccnc2)N(C)C1` [Example 24, 3-((trans-1,4dimethyl-2(S)-pyrrolidinone)methoxy)pyridine dihydrochloride], which Ki [1, 6] is on record?
**A.** 4.2 nM

**Q.** For `Cl.Cl.Clc1cncc(OC[C@H]2CCCN2)c1` [Example 33, 5-chloro-3-(2-(R)-pyrrolidinylmethoxy)pyridine dihydrochloride], which “Dopamine Release relative to Nicotine” value [2, 8] is on record?
**A.** 0.62

**Q.** Which results are given for `CN1CC[C@H]1COc1cccnc1` [Example 10, 3-((1-methyl-2-(S)-azetidinyl)methoxypyridinedihydrochloride]?
**A.** Ki [1, 4]: 0.25 nM; Dopamine Release relative to Nicotine [2, 5]: 1.0
